From patent US9353067B2, “Heterocyclic compounds and uses thereof in the treatment of sexual disorders” (ATIR Holding S.A., priority 2011, dated 2016)

Legend:
[1] = Hydrolysis (half-life) of esterified derivatives of R-55 in rat plasma; type: in vitro ADME; conditions: fresh rat plasma; hydrolysis of ester to R-55, rat plasma, 37° C.; read-out: T1/2 in rat plasma
Procedure: (§1) 50 μl of dimethyl sulfoxide containing 0.2 mg of the tested derivative was added to 1 ml of fresh plasma (human or rat) in a sterile Eppendorf tube. The samples were then incubated at 37° C., and 100 μl samples were removed at various times, up to 120 minutes after incubation. The plasma samples were immediately added to 1 ml acetonitrile. After vigorous mixing by vortex, the samples were centrifuged for 10 minutes at 2000 rotations per minute at 4° C. 0.95 ml of the supernatant was then removed and stored at −20° C. until determination of the concentrations of R-55 and its esterified derivative by LCMS analysis.

[2] = Hydrolysis (half-life) of esterified derivatives of R-55 in human plasma; type: in vitro ADME; conditions: for half-life at 0.19 mg/ml: fresh human plasma, hydrolysis of ester to R-55, human plasma, 37° C., read-out: T1/2 in human plasma; for rate of hydrolysis (in words): human and rat plasma, comparison of acyl moieties
Procedure: as §1

| Compound | half-life at 0.19 mg/ml [1] | half-life at 0.19 mg/ml [2] | rate of hydrolysis (in words) [2] |
| --- | --- | --- | --- |
| CS(=O)(=O)Oc1cccc(N2CCN(Cc3nc4ccccc4c(=O)[nH]3)CC2)c1 [Compound L-164] | > 1000 min | > 1000 min | considerably slower hydrolysis than carboxyl esters |
| N#Cc1cccc(C(=O)Oc2cccc(N3CCN(Cc4nc5ccccc5c(=O)[nH]4)CC3)c2)c1 [Compound L-166] | 7.1 min | 480 min |  |
| O=C(Oc1cccc(N2CCN(Cc3nc4ccccc4c(=O)[nH]3)CC2)c1)C12CC3CC(CC(C3)C1)C2 [Compound L-167] | 58 min | 750 min | relatively slow hydrolysis |
| COc1ccccc1C(=O)Oc1cccc(N2CCN(Cc3nc4ccccc4c(=O)[nH]3)CC2)c1 [Compound L-174] | 52 min | 455 min | slower hydrolysis than exhibited by the corresponding non-substituted aryl |
| Cc1ccccc1C(=O)Oc1cccc(N2CCN(Cc3nc4ccccc4c(=O)[nH]3)CC2)c1 [Compound L-199] | 44 min | > 1000 min |  |
| O=C(Oc1cccc(N2CCN(Cc3nc4ccccc4c(=O)[nH]3)CC2)c1)c1ccc(F)cc1 [Compound L-209] | 35 min | 470 min | slower hydrolysis than exhibited by the corresponding non-substituted aryl |

The next lines start with results.

| half-life at 0.19 mg/ml [1] | half-life at 0.19 mg/ml [2] | Compound | rate of hydrolysis (in words) [2] |
| --- | --- | --- | --- |
| 0.31 min | 10 min | CCC(=O)Oc1cccc(N2CCN(Cc3nc4ccccc4c(=O)[nH]3)CC2)c1 [Compound L-128] | relatively rapid hydrolysis |
| 54 min | 377 min | COc1ccc(C(=O)Oc2cccc(N3CCN(Cc4nc5ccccc5c(=O)[nH]4)CC3)c2)cc1 [Compound L-162] | slower hydrolysis than exhibited by the corresponding non-substituted aryl |
| > 1000 min | > 1000 min | Cc1ccc(S(=O)(=O)Oc2cccc(N3CCN(Cc4nc5ccccc5c(=O)[nH]4)CC3)c2)cc1 [Compound L-163] | considerably slower hydrolysis than carboxyl esters |
| 4.7 min | 41 min | O=C(Oc1cccc(N2CCN(Cc3nc4ccccc4c(=O)[nH]3)CC2)c1)C1CCCCC1 [Compound L-169] | relatively rapid hydrolysis |
| 7.5 min | 280 min | COc1ccc(CC(=O)Oc2cccc(N3CCN(Cc4nc5ccccc5c(=O)[nH]4)CC3)c2)cc1 [Compound L-170] |  |
| 16.5 min | > 1000 min | CCOc1ccc(C(=O)Oc2cccc(N3CCN(Cc4nc5ccccc5c(=O)[nH]4)CC3)c2)cc1 [Compound L-173] | considerably slower hydrolysis |
